For assay [1], the system named is primed T cells. Put plainly: lymphokine production by TCR-stimulated primed T cells, sandwich ELISA of culture supernatant. Type of assay: cell-based, mouse (BALB/c). Conditions: 48 h supernatant. Here is the method: Sandwich Enzyme Linked Immunosorbent Assay (ELISA). The wells of a 96-well flexible microtiter plate (Falcon, Oxnard, Calif.) were coated with capturing monoclonal antibody (anti-IFN-γ; Pharmingen, San Diego, Calif.) to the cytokine being assayed. The plate was incubated overnight at 4° C. and was washed with a solution of phosphate buffer saline, […] and 1% BSA (wash buffer) and blocked with PBS plus 1% BSA (PBS-BSA). The plate was incubated for 1 hour room temperature and washed. Samples were added to the wells and the plate was incubated for 3 hours at room temperature. The plate was washed 3 times and into each well 100 μl of 1.0 μg/ml of biotinylated-detecting monoclonal anti-IFN-γ antibody (Pharmingen) was added. The plate was incubated for 1 hour and washed 3 times. Strepavidin-β-galactosidase (Gibco/BRL), 100 μl, was added to the wells and the plate was incubated for 30 min and washed 5 times. The substrate chlorophenyl-red-β-D-galactoside (CPRG: Calbiochem, San Diego, Calif.) was added to the wells and color was allowed to develop for 30 min. The optical density of the converted CPRG was read on a standard ELISA plate reader at a wavelength of 570 nm. The INF-γ concentration of the standard samples were plotted against their OD to create a standard curve. Using this standard curve, the concentration of INF-γ in the assayed culture supernatant was determined from the OD of the test well and sample dilution factor.
α-MSH treatment of primed T cells. […] The cells were collected onto filter paper using a Tomtec Plate Harvester 96, and radiolabel was measured using a Wallac 1205 Betaplate Liquid Scintillation Counter. […]
In FIG. 16A, proliferation was measured by adding to the T cell cultures 3H-thymidine 24 hours after activation and measuring the counts per minute (CPM) 24 hours later. In FIG. 16(B-D), lymphokine production was measured by assaying the 48 hour culture supernatants by sandwich ELISA for IFN-γ, IL-4, and IL-10. […]
For orientation: ELISA stands for enzyme-linked immunosorbent assay.

The test system of assay [2] is CD25+ CD4+ T cells. Put plainly: two-color flow cytometry for CD4 and CD25 on activated primed T cells. Format: cell-based, mouse. Conditions: TCR-stimulated in the presence or absence of α-MSH 30 pg/ml, 24 hours. Here is the method: In another example, for immunostaining and fluorescence-activated cell sorting, T cells (2×10^6 cells) from 24 hour cultures of the α-MSH-treated activated T cells were centrifuged and washed once in PBS/BSA buffer (10 mM PBS, 3% BSA). The cells were resuspended in 50 μl of PBS/BSA buffer containing 2 μg of PE-conjugated anti-CD4 and FITC-conjugated anti-CD25 antibodies and incubated for 30 minutes room temperature. The cells were centrifuged, resuspended in 1 ml of PBS/BSA buffer, and washed two times. The stained cells were sorted by a Coulter ELITE cell sorter calibrated for two color fluorescence. The cells were sorted into two populations, CD25^+ CD4^+ cells and the remaining cells (all CD4^− cells plus CD25^−CD4^+ cells). The sorted cells were used immediately in the in vitro regulatory T cell assay.
α-MSH induced CD25^+ CD4^+ regulatory T cells. To characterize the regulatory T cells induced by α-MSH, we assayed through flow cytometry the possibility that α-MSH induces CD25^+ (IL-2Rα) CD4^+ regulatory T cells. […] The cells were analyzed by two-color flow cytometry after staining with anti-CD4 and anti-CD25. Presented is a representative dot plot of the flow cytometry seen in four separate staining experiments. (B) Only T cells activated in the presence of α-MSH, were stained and sorted based on the coexpression of CD4 and CD25. […]

Where [3] appears, read: TCR-stimulated in the presence of α-MSH.

“Also recorded” adds a separate entry of the source. No end group written: not given here.

In the case of “α-melanocyte stimulating hormone (SYSMEHFRWGKPV; not fully specified; ends and bridges not checked; UniProt P01189 138-150, looked up) [α-MSH, synthetic α-MSH (Peninsula Laboratories); thirteen-amino acid neuropeptide derived from POMC]”, in assay [1] (setting [3]), the “IL-4 in culture supernatant” value is “no effect; also recorded: no IL-4 was detected” and the IL-10 production result is given as “suppressed”. Moreover, the “IFN-γ production by TCR-stimulated primed T cells” value in assay [1] (versus T cells TCR-stimulated in the absence of α-MSH) is recorded as “significantly (p=0.05) suppressed”. Further, in assay [2], the “percentage of CD25+ CD4+ cells” value is “did not change”.

Values taken from US20060127400A1, “Activation of regulatory T cells by alpha-melanocyte stimulating hormone” (THE SCHEPENS EYE RESEARCH INSTITUTE, INC., priority 1999, published 2006).
